Measurements taken from ChEMBL document CHEMBL1134979, “A glucose-selective fluorescence sensor based on boronic acid-diol recognition” (Bioorg Med Chem Lett, 2002).

Assays:
[1] = Binding constant for complexation with Galactose by Fluorescence experiment
[2] = Binding constant for complexation with Fructose by Fluorescence experiment
[3] = Binding constant for complexation with glucose by Fluorescence experiment
[4] = Selectivity for Glucose to Fructose was determined by Fluorescence experiment
[5] = Fluorescence intensity change with respect to glucose binding (100 mM) was determined by Fluorescence experiment; PBA is not fluorescent.
[6] = Binding constant for complexation with Fructose by Fluorescence experiment; Fluorescence was too small for an accurate Ka determination.
[7] = Fluorescence intensity change with respect to glucose binding (100 mM) was determined by Fluorescence experiment; Decreased by 0.5 fold
[8] = Selectivity for Glucose to Fructose was determined by Fluorescence experiment; Fluorescence intensity change upon binding with fructose was too small for an accurate Ka determination.
[9] = Fluorescence intensity change with respect to glucose binding (100 mM) was determined by Fluorescence experiment; Increased by 5.5 fold
[10] = Fluorescence intensity change with respect to glucose binding (100 mM) was determined by Fluorescence experiment; Decreased by 0.4 fold
[11] = Fluorescence intensity change with respect to glucose binding (100 mM) was determined by Fluorescence experiment; Increased by 7.0 fold
[12] = Fluorescence intensity change with respect to glucose binding (100 mM) was determined by Fluorescence experiment; Increased by 0.9 fold
[13] = Fluorescence intensity change with respect to glucose binding (100 mM) was determined by Fluorescence experiment; Increased by 4.3 fold

| Structure (SMILES) | Ka [1] [M⁻¹] | Ka [2] [M⁻¹] | Ka [3] [M⁻¹] | Selectivity [4] | also measured |
| --- | --- | --- | --- | --- | --- |
| OB(O)c1ccccc1 | 15 | 162 | 5 | 0.03 | Activity [5]: PBA is not fluorescent |
| CC1=C2C[C@H]3Cc4c(CO)oc(-c5ccc(B(O)O)cc5)c4C3=C2Oc2cc(B(O)O)ccc21 | 100 | – | 4000 | – | Ka [6]: Fluorescence was too small for an accurate Ka determination; Activity [7]: Decreased by 0.5 fold; Selectivity [8]: Fluorescence intensity change upon binding with fructose was too small for an accurate Ka determination |
| CN(Cc1ccccc1B(O)O)Cc1c2ccccc2c(CN(C)C(=O)c2ccccc2C(=O)N(C)Cc2c3ccccc3c(CN(C)Cc3ccccc3B(O)O)c3ccccc23)c2ccccc12 | 33 | 283 | 178 | 0.6 | Activity [9]: Increased by 5.5 fold |
| CN(Cc1ccccc1B(O)O)Cc1c2ccccc2c(CN(C)Cc2ccccc2B(O)O)c2ccccc12 | 158 | 316 | 3980 | 13 | – |
| O=C1c2cccc3cc([N+](=O)[O-])cc(c23)C(=O)N1c1cccc(B(O)O)c1 | – | 476 | 38 | 0.08 | Activity [10]: Decreased by 0.4 fold |
| CN(Cc1ccccc1B(O)O)Cc1c2ccccc2c(CN(C)C(=O)Cc2ccccc2CC(=O)N(C)Cc2c3ccccc3c(CN(C)Cc3ccccc3B(O)O)c3ccccc23)c2ccccc12 | 30 | 34 | 1470 | 43 | Activity [11]: Increased by 7.0 fold |
| OB(O)c1ccc[n+](Cc2c3ccccc3c(C[n+]3cccc(B(O)O)c3)c3ccccc23)c1 | – | – | 2510 | – | Activity [12]: Increased by 0.9 fold |
| CN(Cc1ccccc1B(O)O)Cc1c2ccccc2c(CN(C)C(=O)CCCCC(=O)N(C)Cc2c3ccccc3c(CN(C)Cc3ccccc3B(O)O)c3ccccc23)c2ccccc12 | 105 | 77 | 638 | 8 | Activity [13]: Increased by 4.3 fold |
